Source: ChEMBL document CHEMBL1201862, “PubChem BioAssay data set” (2004)
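Compound exposure: 48 hours, 5 concentrations, 96-well plates. Abbreviation: GI50, concentration required for 50% inhibition of growth.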 The source made the active and inactive calls. No stated cut-off is given here; in the data, active = GI50 up to about 1.1 µM and inactive = higher.

Tests used:
Experiment in all cases: inhibition of tumour cell growth, NCI panel, 48 h
[1] = test system: HL-60
[2] = test system: UACC-62
[3] = test system: K562
[4] = test system: SW-620
[5] = test system: A549
[6] = test system: IGROV-1
[7] = test system: A498
[8] = test system: UO-31
[9] = test system: NCI-H226
[10] = test system: NCI-H522
[11] = test system: NCI-H23
[12] = test system: SK-MEL-2
[13] = test system: SNB-19
[14] = test system: HOP-62
[15] = test system: HCT-15
[16] = test system: U-251
[17] = test system: SF-268
[18] = test system: NCI/ADR-RES
[19] = test system: HCT-116
[20] = test system: ACHN

| Compound | GI50 [1] | GI50 [2] | GI50 [3] | GI50 [4] | GI50 [5] | GI50 [6] | GI50 [7] | GI50 [8] | GI50 [9] | GI50 [10] | GI50 [11] | GI50 [12] | GI50 [13] | GI50 [14] | GI50 [15] [µM] | GI50 [16] | GI50 [17] | GI50 [18] | GI50 [19] | GI50 [20] |
| --- | --- | --- | --- | --- | --- | --- | --- | --- | --- | --- | --- | --- | --- | --- | --- | --- | --- | --- | --- | --- |
| C=C1C(=O)OC2C1CC1OC2C(C)CCC/C(C)=C\CCC1(C)O (configuration not stated) | 5.61 µM (inactive) | 9.04 µM (inactive) | 12.7 µM (inactive) | 10.9 µM (inactive) | 29.7 µM (inactive) | 13.9 µM (inactive) | 19.9 µM (inactive) | 32.3 µM (inactive) | 18.4 µM (inactive) | 8.71 µM (inactive) | 9.25 µM (inactive) | 10.8 µM (inactive) | 49.1 µM (inactive) | 32.2 µM (inactive) | 18.2 | 41.3 µM (inactive) | 13 µM (inactive) | 14.4 µM (inactive) | 13.5 µM (inactive) | – |
| C[C@]12CC[C@H](O)C=C1CC[C@@H]1[C@@H]2CC[C@]2(C)C(c3ccc(=O)oc3)CC[C@]12O (some centres not stated) | – | 0.0154 µM (active) | 0.0125 µM (active) | 0.0149 µM (active) | 0.0125 µM (active) | 0.0141 µM (active) | 0.0125 µM (active) | 0.0141 µM (active) | 0.0375 µM (active) | 0.0125 µM (active) | 0.0125 µM (active) | 0.0176 µM (active) | 0.0327 µM (active) | 0.0125 µM (active) | 0.0175 | 0.0153 µM (active) | 0.0125 µM (active) | 0.0328 µM (active) | 0.0125 µM (active) | – |
| COC(=O)C1=C(OC(=O)/C=C/c2ccc(Cl)cc2)C(C(=O)OC)[C@@]2(O)[C@@H](C(=O)OC)[C@H](C)C[C@@H]1[C@@H]2C(=O)OC (some centres not stated) | 13.6 µM (inactive) | 17.6 µM (inactive) | 21.6 µM (inactive) | 28.4 µM (inactive) | 23.2 µM (inactive) | 3.94 µM (inactive) | – | 27 µM (inactive) | 20.7 µM (inactive) | 6.81 µM (inactive) | 19.5 µM (inactive) | 15.7 µM (inactive) | 30.8 µM (inactive) | 28.8 µM (inactive) | 19.3 | 28.4 µM (inactive) | 16.7 µM (inactive) | 21.6 µM (inactive) | 23.8 µM (inactive) | 22.2 µM (inactive) |
| CCCCCCCCCCCC[N+](CCCCCCCCCCCC)=C1SCCS1 | 0.163 µM (active) | 10.8 µM (inactive) | – | 3.29 µM (inactive) | 4.78 µM (inactive) | 10.5 µM (inactive) | 15.7 µM (inactive) | 13.4 µM (inactive) | 14.2 µM (inactive) | 5.82 µM (inactive) | 2.04 µM (inactive) | 10.7 µM (inactive) | – | 16.7 µM (inactive) | 10.7 | 3.26 µM (inactive) | 8.04 µM (inactive) | – | 2.84 µM (inactive) | 12.5 µM (inactive) |
| NCCCNCCSSCc1ccccc1CSSCCNCCCN | 9.93 µM (inactive) | 34.1 µM (inactive) | 23.6 µM (inactive) | 16.7 µM (inactive) | > 100 µM (inactive) | > 100 µM (inactive) | > 100 µM (inactive) | 60.5 µM (inactive) | – | 10.7 µM (inactive) | > 100 µM (inactive) | > 100 µM (inactive) | > 100 µM (inactive) | > 100 µM (inactive) | 57.1 | > 100 µM (inactive) | 85.1 µM (inactive) | – | – | 37 µM (inactive) |
| COc1cc(C2C(C(=O)O)=C(CO)Oc3cc4c(cc32)OCO4)cc(OC)c1OC (configuration not stated) | > 100 µM (inactive) | > 100 µM (inactive) | > 100 µM (inactive) | > 100 µM (inactive) | > 100 µM (inactive) | > 100 µM (inactive) | – | > 100 µM (inactive) | – | – | > 100 µM (inactive) | – | > 100 µM (inactive) | – | > 100 | > 100 µM (inactive) | – | – | > 100 µM (inactive) | > 100 µM (inactive) |
| C=CCn1c(=O)c(C)cn(COCCO)c1=O | – | – | > 100 µM (inactive) | > 100 µM (inactive) | > 100 µM (inactive) | > 100 µM (inactive) | > 10 µM (inactive) | > 100 µM (inactive) | > 100 µM (inactive) | > 100 µM (inactive) | > 100 µM (inactive) | > 100 µM (inactive) | > 100 µM (inactive) | > 100 µM (inactive) | – | > 100 µM (inactive) | > 100 µM (inactive) | > 100 µM (inactive) | – | > 100 µM (inactive) |
| C[S+](C)([O-])=Nn1c(=O)n2n(c1=O)[C@H]1CC[C@@H]2C1 | 46.3 µM (inactive) | > 100 µM (inactive) | > 100 µM (inactive) | > 100 µM (inactive) | > 100 µM (inactive) | > 100 µM (inactive) | > 100 µM (inactive) | > 100 µM (inactive) | > 100 µM (inactive) | > 100 µM (inactive) | > 100 µM (inactive) | > 100 µM (inactive) | > 100 µM (inactive) | > 100 µM (inactive) | > 100 | > 100 µM (inactive) | > 100 µM (inactive) | > 100 µM (inactive) | – | > 100 µM (inactive) |
| CC1(C)N=C(N)N=C(N)N1c1ccc(OCCCOc2ccccc2)c(Cl)c1 | 0.0322 µM (active) | 0.472 µM (active) | 2.48 µM (inactive) | 0.0356 µM (active) | 0.0473 µM (active) | < 0.0301 µM (active) | 1.4 µM (inactive) | – | 0.798 µM (active) | 0.247 µM (active) | 0.239 µM (active) | 1.37 µM (inactive) | 0.0379 µM (active) | – | 2.48 | < 0.0236 µM (active) | 0.0585 µM (active) | > 100 µM (inactive) | 0.026 µM (active) | – |
| O=C(Nc1nc2ccc([N+](=O)[O-])cc2s1)C(=O)C(C(=O)c1ccccc1F)C1OC(=O)c2ccccc21 (configuration not stated) | 20.3 µM (inactive) | 29.6 µM (inactive) | 29.9 µM (inactive) | 41.3 µM (inactive) | 57 µM (inactive) | 75.5 µM (inactive) | 42.8 µM (inactive) | 38 µM (inactive) | – | 17.4 µM (inactive) | 67.1 µM (inactive) | 20.4 µM (inactive) | 28.6 µM (inactive) | 62.2 µM (inactive) | 31.2 | 16.9 µM (inactive) | 34.2 µM (inactive) | – | 37.1 µM (inactive) | 59.4 µM (inactive) |
| CC(NC(C#N)CC12CC3CC(CC(C3)C1)C2)c1ccccc1 (configuration not stated) | 18.5 µM (inactive) | 84.3 µM (inactive) | 23.1 µM (inactive) | 54.8 µM (inactive) | > 100 µM (inactive) | 32.4 µM (inactive) | > 100 µM (inactive) | 77.8 µM (inactive) | – | > 100 µM (inactive) | – | – | > 100 µM (inactive) | > 100 µM (inactive) | 56.8 | 42.2 µM (inactive) | 47.4 µM (inactive) | > 100 µM (inactive) | 34.8 µM (inactive) | 47.6 µM (inactive) |
| CC(C)c1ccccc1SCc1cc(=O)cc(CSc2ccccc2C(C)C)o1 | 22.9 µM (inactive) | 16.7 µM (inactive) | 48.1 µM (inactive) | 34.2 µM (inactive) | 19.7 µM (inactive) | 14.5 µM (inactive) | 20.3 µM (inactive) | 27.4 µM (inactive) | 21.2 µM (inactive) | – | 37.6 µM (inactive) | 17.4 µM (inactive) | 32.7 µM (inactive) | 20.7 µM (inactive) | 24.7 | 22 µM (inactive) | 16.8 µM (inactive) | 17.7 µM (inactive) | – | 32.6 µM (inactive) |
| CC12Nc3ccccc3C1=C(c1ccccc1)CC1C(=O)OC(=O)C12 (configuration not stated) | > 100 µM (inactive) | > 100 µM (inactive) | > 100 µM (inactive) | > 100 µM (inactive) | > 100 µM (inactive) | > 100 µM (inactive) | – | > 100 µM (inactive) | – | > 100 µM (inactive) | > 100 µM (inactive) | > 100 µM (inactive) | > 100 µM (inactive) | > 100 µM (inactive) | > 100 | > 100 µM (inactive) | > 100 µM (inactive) | – | > 100 µM (inactive) | > 100 µM (inactive) |
| CN(C)c1ccc(N2C(=S)SC(=N\c3ccccc3)/C2=N/c2ccccc2)cc1 | > 100 µM (inactive) | > 100 µM (inactive) | > 100 µM (inactive) | – | – | > 100 µM (inactive) | > 100 µM (inactive) | > 100 µM (inactive) | > 100 µM (inactive) | > 100 µM (inactive) | > 100 µM (inactive) | > 100 µM (inactive) | > 100 µM (inactive) | > 100 µM (inactive) | > 100 | > 100 µM (inactive) | – | > 100 µM (inactive) | > 100 µM (inactive) | – |
| NC(=S)N/N=C1\c2ccccc2CCC1CCC1(O)CCc2ccccc2C1=O (configuration not stated) | 2.74 µM (inactive) | 17.8 µM (inactive) | > 10 µM (inactive) | 28 µM (inactive) | 36.1 µM (inactive) | 37.8 µM (inactive) | – | 12 µM (inactive) | – | – | 25.5 µM (inactive) | – | 34.8 µM (inactive) | 57.4 µM (inactive) | 39.7 | 28.6 µM (inactive) | 42.1 µM (inactive) | 13.8 µM (inactive) | 18.7 µM (inactive) | 35.5 µM (inactive) |
| COc1ccc2c(c1)c1cc(OC)ccc1n2CCCCOc1ccc(-c2c3ccccc3c(-c3ccc(OCCCCn4c5ccc(OC)cc5c5cc(OC)ccc54)cc3)c3ccccc23)cc1 | – | > 100 µM (inactive) | > 100 µM (inactive) | > 100 µM (inactive) | > 100 µM (inactive) | > 100 µM (inactive) | – | > 100 µM (inactive) | > 100 µM (inactive) | > 100 µM (inactive) | – | > 100 µM (inactive) | > 100 µM (inactive) | > 100 µM (inactive) | > 100 | – | > 100 µM (inactive) | – | > 100 µM (inactive) | > 100 µM (inactive) |
